These compounds were tested against rat acid ceramidase (rAC) (Rattus norvegicus (Rat), UniProt Q6P7S1) (assay: Rat acid ceramidase (rAC) enzymatic assay, LC/MS of lauric acid). Details: at 0.3 μM; read-out: rAC percent inhibition.
Type: biochemical
Experimental: A lysosomal rat acid ceramidase (rAC) protein preparation was obtained from cells stably expressing rAC resuspended in 20 mM Tris HCl (pH 7.5) with 0.32 M sucrose. Samples were sonicated and centrifuged at 800×g for 15 min at 4° C. Supernatants were then centrifuged at 12,000×g for 30 min at 4° C. Pellets were re-suspended in PBS pH 7.4 and subjected to 2 freeze-thaw cycles at −80° C. The suspension was finally centrifuged at 105,000×g for 1 hr at 4° C. and the supernatant containing rAC was then used in the enzymatic assay.
r-AC protein samples were pre-incubated with various concentrations of test compounds or vehicle control in 100 mM NaH2PO4/citrate buffer pH 4.5, 0.1% Nonidet P-40, 3 mM DTT for 30 min at 37° C. Samples were incubated with 100 μM N-lauroyl ceramide (Nu-Chek Prep, Elysian, Minn.) at 37° for 30 min. The reaction was stopped by addition of a mixture of chloroform/methanol (2:1 vol/vol) containing 1 nmol of heptadecanoic acid (HDA; NuChek Prep). The organic phases were collected, dried under nitrogen, and analyzed by LC/MS in the negative-ion mode using heptadecanoic acid (HDA) as internal standard (m/z=199 for lauric acid, m/z=269 for HDA). HDA was eluted on an XDB Eclipse C18 column isocratically at 2.2 mL/min for 1 min with a solvent mixture of 95% methanol and 5% water, both containing 0.25% acetic acid, and 5 mM ammonium acetate. The column temperature was 50° C. Electrospray ionization (ESI) was in the negative mode, capillary voltage was 4 kV, and fragmentor voltage was 100 V. Nitrogen was used as drying gas at a flow rate of 13 L/min and at a temperature of 350° C. Nebulizer pressure was set at 60 psi. We monitored [M-H]− in the selected-ion monitoring (SIM) mode using HDA as internal standard.
Inhibition of rAC activity was calculated as a reduction of lauric acid in the samples compared to vehicle controls. Median inhibitory concentration (IC50) values were calculated by non-linear regression analysis of log [concentration]/inhibition curves using. GraphPad Prism 5 (GraphPad Software, Inc., CA, USA) applying a standard slope curve fitting.

Sequence of rat acid ceramidase (rAC) (Q6P7S1 142-394): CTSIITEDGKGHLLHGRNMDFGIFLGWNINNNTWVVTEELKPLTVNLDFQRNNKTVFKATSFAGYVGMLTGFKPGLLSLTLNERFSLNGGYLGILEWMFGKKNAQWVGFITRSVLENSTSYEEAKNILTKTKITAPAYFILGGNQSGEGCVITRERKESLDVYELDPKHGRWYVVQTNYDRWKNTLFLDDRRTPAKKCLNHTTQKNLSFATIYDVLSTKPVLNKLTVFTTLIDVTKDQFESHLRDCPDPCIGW
Sequence of rat acid ceramidase (rAC) (Q6P7S1 21-141): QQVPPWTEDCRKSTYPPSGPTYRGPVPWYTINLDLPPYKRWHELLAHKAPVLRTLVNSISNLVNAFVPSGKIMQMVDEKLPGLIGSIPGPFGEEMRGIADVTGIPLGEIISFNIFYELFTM

Row | inhibition at 0.3 µM [%] | Compound
1 | 65 | O=C(NCCCCc1ccccc1)n1ccc(=O)[nH]c1=O [Example 1, 2,4-dioxo-N-(4-phenylbutyl)pyrimidine-1-carboxamide]

Same assay, conditions: rat acid ceramidase, 100 μM N-lauroyl ceramide, pH 4.5

Row | IC50 [nM] | Compound
2 | 420 | CCCCCCNC(=O)n1cc(CO)c(=O)[nH]c1=O [Example 7, N-hexyl-5-(hydroxymethyl)-2,4-dioxo-pyrimidine-1-carboxamide]
3 | 147 | CCCCCCNC(=O)n1cc(I)c(=O)[nH]c1=O [Example 8, N-hexyl-5-iodo-2,4-dioxo-pyrimidine-1-carboxamide]
4 | 1100 | CCCCCCNC(=O)n1cc(OC)c(=O)[nH]c1=O [Example 9, N-hexyl-5-methoxy-2,4-dioxo-pyrimidine-1-carboxamide]
5 | 5500 | CCCCCCNC(=O)n1cc(N(C)Cc2ccccc2)c(=O)[nH]c1=O [Example 10, 5-(benzyl(methyl)amino)-N-hexyl-2,4-dioxo-pyrimidine-1-carboxamide]
6 | 3400 | CCCCCCNC(=O)n1cc(NC)c(=O)[nH]c1=O [Example 11, N-hexyl-5-methylamino-2,4-dioxo-pyrimidine-1-carboxamide]
7 | 880 | CCCCCCNC(=O)n1cc(N2CCOCC2)c(=O)[nH]c1=O [Example 12, N-hexyl-5-morpholino-2,4-dioxo-pyrimidine-1-carboxamide]
8 | 1400 | CCCCCCNC(=O)n1cc(N2CCN(C)CC2)c(=O)[nH]c1=O [Example 13, N-hexyl-5-(4-methylpiperazin-1-yl)-2,4-dioxo-pyrimidine-1-carboxamide]
9 | 40 | CCCCCCNC(=O)n1cc(C)c(=O)n(CC2CC2)c1=O [Example 16, 3-(cyclopropylmethyl)-N-hexyl-5-methyl-2,4-dioxo-pyrimidine-1-carboxamide]
10 | 7 | CCCCCCCCNC(=O)n1cc(C(F)(F)F)c(=O)[nH]c1=O [Example 32, N-octyl-2,4-dioxo-5-(trifluoromethyl)pyrimidine-1-carboxamide]

Row | Compound | IC50 [nM]
11 | CCCCCCNC(=O)n1cc(Cl)c(=O)[nH]c1=O [Example 3, 5-Chloro-N-hexyl-2,4-dioxo-pyrimidine-1-carboxamide] | 67

These compounds were tested against human acid ceramidase (hAC) (Homo sapiens (Human), UniProt Q13510) (assay: Human acid ceramidase (hAC) activity assay, UPLC/MS of lauric acid). Details: at 0.5 μM; read-out: hAC percent inhibition.
Type: biochemical
Experimental: Human acid ceramidase (hAC) cDNA was purchased from Open Biosystem (clone ID 3923451) and subcloned in the mammalian expression vector pCDNA3.1, containing the neomycin resistance gene. The cell line HEK293 was transfected with hAC-pCDNA3.1 construct using JetPEI reagent (Polypus Transfection™, Illkirch, FR) following the manufacturer instructions. A stable cell line of hAC-overexpressing HEK293 was generated by selection with G418 (1 mg/ml) and cell clones were derived by limited dilution plating. hAC-expressing clones were analyzed by western blot.
Hek293 cells overexpressing hAC were suspended in 20 mM Tris HCl (pH 7.5) containing 0.32M sucrose, sonicated and centrifuged at 800×g for 15 min at 4° C. The supernatants were centrifuged again at 12,000×g for 30 min at 4° C. The pellets were suspended in phosphate-buffered saline (PBS) and subjected to 2 freeze-thaw cycles at −80° C. The suspensions were centrifuged at 105,000×g for 1 h at 4° C. The supernatants containing hAC were kept at −80° C. until use. Protein concentration was measured using the bicinchoninic acid (BCA) assay (Pierce).
A hAC protein preparation (10 μg) was preincubated with inhibitors (final DMSO concentration 1%) in assay buffer (100 mM sodium phosphate, 0.1% Nonidet P-40, 150 mM NaCl, 3 mM DTT, 100 mM sodium citrate, pH 4.5) for 30 min at 37° C. Reactions were started by the addition of 50 μM N-lauroyl ceramide (Nu-Chek Prep, Elysian, Minn.) and carried on for 30 min at 37° C. Reactions were stopped by addition of a mixture of chloroform/methanol (2:1, vol/vol) containing 1 nmol 11-lauroleic acid (NuChek Prep). The organic phases were collected, dried under nitrogen and analyzed by UPLC/MS (Acquity, Waters) in the negative-ion mode monitoring the reaction product (lauric acid, m/z=199) using 11-lauroleic acid as internal standard.
Lipids were eluted on an Acquity UPLC BEH C18 column (50 mm length, 2.1 mm i.d., 1.7 μm pore size, Waters) column at 0.5 mL-min^−1 for 1.5 min with a gradient of acetonitrile (CH3CN) and water, both containing 0.25% acetic acid and 5 mM ammonium acetate (70% to 100% CH3CN in 0.5 min, 100% CH3CN for 0.5 min, 70% CH3CN for 0.4 min). The column temperature was 40° C. Electrospray ionization (ESI) was in the negative mode, capillary voltage was 1 kV and cone voltage was 50 V. Nitrogen was used as drying gas at a flow rate of 500 L/h and at a temperature of 400° C.
The [M-H]^− ion was monitored in the selected-ion monitoring mode (m/z values: lauric acid 199, 11-lauroleic acid […]). Calibration curves were generated with authentic lauric acid (Nu Check Prep). Inhibition of acid ceramidase activity was calculated as reduction of lauric acid in the samples compared to vehicle controls. IC50 values were calculated by non-linear regression analysis of log [concentration]/inhibition curves using GraphPad Prism 5 (GraphPad Software Inc., CA, USA) applying a standard slope curve fitting.

Sequence of human acid ceramidase (hAC) (Q13510 143-395): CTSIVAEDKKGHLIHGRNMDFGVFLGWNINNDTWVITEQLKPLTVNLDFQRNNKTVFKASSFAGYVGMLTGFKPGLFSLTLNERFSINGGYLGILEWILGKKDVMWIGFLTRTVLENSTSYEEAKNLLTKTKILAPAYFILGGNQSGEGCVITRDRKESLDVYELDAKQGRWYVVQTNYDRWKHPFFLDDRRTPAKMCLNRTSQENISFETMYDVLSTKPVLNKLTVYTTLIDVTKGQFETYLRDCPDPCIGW
Sequence of human acid ceramidase (hAC) (Q13510 22-142): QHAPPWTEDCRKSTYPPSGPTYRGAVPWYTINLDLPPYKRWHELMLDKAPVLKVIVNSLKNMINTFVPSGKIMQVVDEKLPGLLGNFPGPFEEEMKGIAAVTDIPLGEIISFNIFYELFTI

Row | inhibition at 0.5 µM [%] | Compound
12 | 99 | O=C(NCCCCCc1ccc(F)cc1)n1ccc(=O)[nH]c1=O [Example 34, N-[5-(4-fluorophenyl)pentyl]-2,4-dioxo-pyrimidine-1-carboxamide]

Same assay, conditions: at 1 μM; read-out: hAC percent inhibition

Row | inhibition at 1 µM [%] | Compound
13 | 74 | CCCCCCNC(=O)n1cc(-c2ccc(F)cc2)c(=O)[nH]c1=O [Example 18, 5-(4-fluorophenyl)-N-hexyl-2,4-dioxo-pyrimidine-1-carboxamide]
14 | 52 | CCCCCCNC(=O)n1cc(-c2ccc(OC)cc2)c(=O)[nH]c1=O [Example 19, N-hexyl-5-(4-methoxyphenyl)-2,4-dioxo-pyrimidine-1-carboxamide]
15 | 54 | CCCCCCNC(=O)n1cc(-c2ccc(C)cc2)c(=O)[nH]c1=O [Example 20, N-hexyl-2,4-dioxo-5-(p-tolyl)pyrimidine-1-carboxamide]
16 | 86 | CCCCCCNC(=O)n1cc(-c2ccc(C(F)(F)F)cc2)c(=O)[nH]c1=O [Example 21, N-hexyl-2,4-dioxo-5-[4-(trifluoromethyl)phenyl]pyrimidine-1-carboxamide]
17 | 64 | CCCCCCNC(=O)n1cc(-c2ccc3ccccc3c2)c(=O)[nH]c1=O [Example 22, N-Hexyl-5-(2-naphthyl)-2,4-dioxo-pyrimidine-1-carboxamide]
18 | 96 | CCCCCCNC(=O)n1cc(Br)c(=O)n(C)c1=O [Example 25, 5-Bromo-N-hexyl-3-methyl-2,4-dioxo-pyrimidine-1-carboxamide]
19 | 100 | CCCCCCNC(=O)n1cc(-c2ccccc2)c(=O)n(C(=O)OCC(C)C)c1=O [Example 26, Isobutyl 3-(hexylcarbamoyl)-2,6-dioxo-5-phenyl-pyrimidine-1-carboxylate]
20 | 100 | CCCCCCNC(=O)n1cc(Cl)c(=O)n(C(=O)OCC(C)C)c1=O [Example 30, Isobutyl 5-chloro-3-(hexylcarbamoyl)-2,6-dioxo-pyrimidine-1-carboxylate]
21 | 99 | CCCCCCNC(=O)n1cc(-c2cccnc2)c(=O)[nH]c1=O [Example 31, N-hexyl-2,4-dioxo-5-(3-pyridyl)pyrimidine-1-carboxamide]
22 | 100 | O=C(NCCCCCc1ccccc1)n1ccc(=O)[nH]c1=O [Example 33, 2,4-dioxo-N-(5-phenylpentyl)pyrimidine-1-carboxamide]

Same assay, conditions: human acid ceramidase, 50 μM N-lauroyl ceramide, pH 4.5

Row | IC50 [nM] | Compound
23 | 270 | CCCCCCNC(=O)n1cc(Br)c(=O)n(C(=O)OC)c1=O [Example 23, Methyl 5-bromo-3-(hexylcarbamoyl)-2,6-dioxo-pyrimidine-1-carboxylate]
24 | 14 | CCCCCCNC(=O)n1cc(Br)c(=O)n(C(=O)OCC(C)C)c1=O [Example 24, Isobutyl 5-bromo-3-(hexylcarbamoyl)-2,6-dioxo-pyrimidine-1-carboxylate]

Row | Compound | IC50 [nM]
25 | CCCCCCNC(=O)n1cc(-c2ccccc2)c(=O)[nH]c1=O [Example 14, N-hexyl-2,4-dioxo-5-phenyl-pyrimidine-1-carboxamide] | 155

Each compound was assayed on SW403 cells (assay: SW403 cell viability, MTT assay). Details: sub-chronic treatment 72 hrs; compounds 30 μM, 5FU 300 nM.
Type: cell-based, human
Experimental: Cells were seeded in 12- or 96-well plates in complete medium 24 hrs before treatment and then incubated for 24 hrs (single treatment) or 72 hrs (multiple treatments) with different drug concentrations in media without serum. Cell viability was then evaluated.
Alternatively, cell viability was assessed measuring mitochondrial functionality by the MIT assay, which is based on the reduction of the soluble tetrazolium salt MTT [(3-(4,5-dimethylthiazol-2-yl)-2,5-diphenyltetrazolium bromide] into insoluble formazan by mitochondria. Briefly, after treatment, cells were washed with PBS and incubated with 0.5 mg/ml, MTT for 2 hrs at room temperature, MTT reduction was quantified by absorbance at 570 nm using a UV-visible plate reader.

Row | Compound | SW403 cell viability (MTT assay)
26 | O=c1[nH]cc(F)c(=O)[nH]1 [5-fluorouracil, reference compound] | reduced cell viability
